How the values were obtained:
Test in all cases: combination Emax (second highest fraction inhibited in the dose matrix, 72 h); higher = more inhibition; extreme values may be limits of the assay
[1] = tested on: CAL-54 (Kidney Carcinoma)
Summary of the method: (§1)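 Bliss excess equals the observed combination effect minus the expected value EA + EB − EA·EB, where EA and EB are the effects of each agent alone. Combination Emax is the second-highest inhibition within the matrix. Inhibition was scaled from CellTiter-Glo 2.0 luminescence, with 0 set by vehicle wells and 1 by blank wells, after 72 hours of two-drug dosing of cells plated in 1536-well plates.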

[2] = tested on: CAPAN-1 (Pancreatic Carcinoma)
Summary of the method: as §1

[3] = tested on: CTB-1 (B-Cell Non-Hodgkin's Lymphoma)
Summary of the method: as §1

[4] = tested on: EN (Endometrial Carcinoma)
Summary of the method: as §1

[5] = tested on: HDLM-2 (Hodgkin's Lymphoma)
Summary of the method: as §1

[6] = tested on: HO-1-u-1 (Oral Cavity Carcinoma)
Summary of the method: as §1

[7] = tested on: K5 (Thyroid Gland Carcinoma)
Summary of the method: as §1

[8] = tested on: KARPAS-231 (B-Cell Non-Hodgkin's Lymphoma)
Summary of the method: as §1

[9] = tested on: KYSE-410 (Esophageal Squamous Cell Carcinoma)
Summary of the method: as §1

[10] = tested on: LB771-HNC (Head and Neck Carcinoma)
Summary of the method: as §1

[11] = tested on: MDA-MB-468 (Breast Carcinoma)
Summary of the method: as §1

NB14 (Neuroblastoma) = tested on: NB14 (Neuroblastoma)
Summary of the method: as §1

NCI-H2461 (Mesothelioma) = tested on: NCI-H2461 (Mesothelioma)
Summary of the method: as §1

NCI-H2795 (Mesothelioma) = tested on: NCI-H2795 (Mesothelioma)
Summary of the method: as §1

[12] = tested on: RPMI-6666 (Non-Cancerous)
Summary of the method: as §1

SH-4 (Melanoma) = tested on: SH-4 (Melanoma)
Summary of the method: as §1

[13] = tested on: SU-DHL-6 (B-Cell Non-Hodgkin's Lymphoma)
Summary of the method: as §1

[14] = tested on: SUP-T1 (T-Lymphoblastic Leukemia)
Summary of the method: as §1

[15] = tested on: SW1271 (Small Cell Lung Carcinoma)
Summary of the method: as §1

[16] = tested on: UMC-11 (Other Solid Carcinomas)
Summary of the method: as §1

SMILES	combination Emax [1]	combination Emax [2]	combination Emax [3]	combination Emax [4]	combination Emax [5]	combination Emax [6]	combination Emax [7]	combination Emax [8]	combination Emax [9]	combination Emax [10]	combination Emax [11]	combination Emax (NB14 (Neuroblastoma))	combination Emax (NCI-H2461 (Mesothelioma))	combination Emax (NCI-H2795 (Mesothelioma))	combination Emax [12]	combination Emax (SH-4 (Melanoma))	combination Emax [13]	combination Emax [14]	combination Emax [15]	combination Emax [16]
Cc1c2c(nn1C)CSCc1cc(n(C)n1)CSc1cc(c3ccccc3c1)OCCCc1c(C(=O)O)n(C)c3c-2c(Cl)ccc13 [AZD5991] + Cc1cc2ncnn2cc1Nc1ncc2c(n1)n(C1CCOCC1)c(=O)n2C [AZD7648] (first compound max 1 µM, 7x7, partner max 10 µM)	0.367	0.267	0.472	0.563	0.996	0.418	0.351	1	0.229	0.571	0.462	0.72	0.422	0.941	0.541	0.284	1	0.466	0.305	0.625
CCc1c2c(nc3ccc(O)cc13)-c1cc3c(c(=O)n1C2)COC(=O)[C@]3(O)CC [SN-38] + O=C(c1cc(Cc2n[nH]c(=O)c3ccccc23)ccc1F)N1CCN(C(=O)C2CC2)CC1 [Olaparib] (first compound max 0.3 µM, 7x7, partner max 10 µM)	0.788	0.818	0.837	0.18	0.473	0.695	0.505	1	0.423	0.0947	0.773	0.967	0.639	0.771	0.998	0.48	1	0.84	0.758	0.24
CN(CCO)CC[C@H](CSc1ccccc1)Nc1ccc(S(=O)(=O)NC(=O)c2ccc(N3CCC([C@@H](O)c4ccccc4-c4ccc(Cl)cc4)CC3)cc2)cc1S(=O)(=O)C(F)(F)F [AZD4320] + C=CCn1c(=O)c2cnc(Nc3ccc(N4CCN(C)CC4)cc3)nc2n1-c1cccc(C(C)(C)O)n1 [AZD1775] (first compound max 1 µM, partner max 1 µM)	0.827	0.732	0.862	0.567	0.989	0.897	0.485	1	0.796	0.644	0.799	1	0.782	0.53	1	0.5	1	0.909	0.814	0.632
CC1(C)CCC(CN2CCN(c3ccc(C(=O)NS(=O)(=O)c4ccc(NCC5CCOCC5)c([N+](=O)[O-])c4)c(Oc4cnc5[nH]ccc5c4)c3)CC2)=C(c2ccc(Cl)cc2)C1 [Venetoclax] + CN(C)CCCOc1ccc(-c2ccc3ncc4c(c3c2)n(C2CCOCC2)c(=O)n4C)cn1 [AZD0156] (first compound max 1 µM, 7x7, partner max 1 µM)	0.239	0.184	0.242	0.426	0.362	0.413	0.374	0.816	0.172	0.124	0.377	0.98	0.525	0.46	0.976	0.279	0.904	0.616	0.207	0.269
CN(C)CCCOc1ccc(-c2ccc3ncc4c(c3c2)n(C2CCOCC2)c(=O)n4C)cn1 [AZD0156] + CCN(CCO)CCCOc1ccc2c(Nc3cc(CC(=O)Nc4cccc(F)c4)[nH]n3)ncnc2c1 [AZD2811] (first compound max 1 µM, 7x7, partner max 1 µM)	0.134	0.137	0.501	0.494	0.178	0.209	0.244	0.563	0.0555	0.142	0.363	0.857	0.195	0.291	0.551	0.247	0.478	0.366	0.201	0.758
CC1(C)CCC(CN2CCN(c3ccc(C(=O)NS(=O)(=O)c4ccc(NCC5CCOCC5)c([N+](=O)[O-])c4)c(Oc4cnc5[nH]ccc5c4)c3)CC2)=C(c2ccc(Cl)cc2)C1 [Venetoclax] + Cn1cnc2c(F)c(Nc3ccc(Br)cc3Cl)c(C(=O)NOCCO)cc21 [Selumetinib] (first compound max 1 µM, 7x7, partner max 3 µM)	0.205	0.314	0.105	0.373	0.296	0.286	0.742	0.812	0.222	0.132	0.315	0.974	0.444	0.562	0.959	0.872	0.88	0.426	0.432	0.17

— the supplement of paper PMC11061612
